As a reminder, the Ki is a dissociation constant, usually derived from enzyme kinetics or from competition with a known ligand. Low readings indicate a stronger hold on the target, high ones a looser hold on the target.

The text below walks through data of patent US8497287B2, “Aminotetralin compounds as mu opioid receptor antagonists” (priority 2007, dated 2013).

Assay [1] concerns the target T1, human mu opioid receptor (Homo sapiens, UniProt P35372).
T1 construct: host or cells: CHO-K1 cells, membranes
The experiment in a line: biochemical. The following applies: read-out: intrinsic activity (IA), expressed as a percentage.

The target of assay [2] is T1, human mu opioid receptor. The experiment in a line: biochemical. The class given is binding.
The test system of assay [3] is loperamide-induced delayed gastric emptying. As to the kind of experiment: Rat gastric emptying assay, reversal of loperamide-induced delayed gastric emptying. The class given is in vivo. The following applies: administered orally, loperamide 1 mg/kg s.c., gastric emptying model.

T1 sequence (P35372 whole entry): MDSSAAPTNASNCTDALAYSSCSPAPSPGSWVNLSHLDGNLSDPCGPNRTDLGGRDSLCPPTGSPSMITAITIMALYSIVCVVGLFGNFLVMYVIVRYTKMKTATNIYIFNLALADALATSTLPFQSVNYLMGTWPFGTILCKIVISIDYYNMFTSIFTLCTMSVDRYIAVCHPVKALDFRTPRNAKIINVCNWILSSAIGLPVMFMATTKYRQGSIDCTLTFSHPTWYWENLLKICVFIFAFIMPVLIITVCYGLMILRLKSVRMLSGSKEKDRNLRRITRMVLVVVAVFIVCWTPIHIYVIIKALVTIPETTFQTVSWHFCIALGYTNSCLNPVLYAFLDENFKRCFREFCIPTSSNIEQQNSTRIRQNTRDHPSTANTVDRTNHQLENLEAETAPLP

As for `CCC1(CC)c2cc(O)ccc2C[C@@H](OC)[C@@H]1NCC(Cc1ccccc1)C(=O)O` (relative stereo) [Example 11, 2-Benzyl-3-(trans-1,1-diethyl-7-hydroxy-3-methoxy-1,2,3,4-tetrahydro-naphthalen-2-ylamino)-propionic acid], the Emax on human mu opioid receptor [1] is -6%. The molecule further had a Ki at human mu opioid receptor [2] of 1.26 nM.

In the case of `COC1Cc2ccc(C(N)=O)cc2C(C)(C)C1NCCC(=O)N1CCCCC1` (racemic) [Example 1, trans-6-Methoxy-8,8-dimethyl-7-(3-oxo-3-piperidin-1-yl-propylamino)-5,6,7,8-tetrahydro-naphthalene-2-carboxylic acid amide], the “ID50, dose required for 50% reversal of the effects of loperamide” value in assay [3] was 0.48 mg/kg. At human mu opioid receptor [1], the Emax was determined as 0%. The molecule also displayed a Ki on human mu opioid receptor [2] of 0.1 nM.
